# Patent US6528543B1, “Urea derivatives” (Hoffman-La Roche Inc., priority 1999, dated 2003)
row,Compound,melting point [°C]
1,NC(=O)NC(=O)C(CC1CCCCC1)c1ccc(Cl)c(Cl)c1 (stereo not shown) [Example 1],76 to 79
2,"CNC(=O)NC(=O)C(CC1CCCC1)c1ccc([N+](=O)[O-])cc1 (stereo not shown) [Example 5, 1-[3-cyclopentyl-2-(4-nitro-phenyl)-propionyl]-3-methyl-urea]",179 to 183
3,"CNC(=O)NC(=O)C(CC1CCCC1)c1ccc(SC(F)(F)F)cc1 (stereo not shown) [Example 8, 1-[3-cyclopentyl-2-(4-trifluoromethylsulfanyl-phenyl)-propionyl]-3-methyl urea]",144 to 145
4,"CNC(=O)NC(=O)C(CC1CCCC1)c1ccc(S(=O)(=O)C(F)(F)F)cc1 (stereo not shown) [Example 9, 1-[3-cyclopentyl-2-(4-trifluoromethanesulfonyl-phenyl)-propionyl]-3-methyl urea]",191 to 192
5,"CNC(=O)NC(=O)C(CC1CCCC1)c1ccc(S(C)(=O)=O)cc1 (stereo not shown) [Example 11, 1-[3-cyclopentyl-2-(4-methanesulfonyl-phenyl)-propionyl]-3-methyl urea]",205 to 206
6,"CNC(=O)NC(=O)C(CC1CCCC1)c1ccc(S(C)(=O)=O)c([N+](=O)[O-])c1 (stereo not shown) [Example 14, 1-[3-cyclopentyl-2-(4-methanesulfonyl-3-nitrophenyl)-propionyl]-3-methyl-urea]",241 to 242
7,"CC(C)CC(C(=O)NC(N)=O)c1ccc(Cl)cc1 (stereo not shown) [Example 16, [2-(4-chloro-phenyl)-4-methyl-pentanoyl]-urea]",164 to 165
8,"CC(C)C[C@@H](C(=O)NC(N)=O)c1ccc(Cl)c(Cl)c1 [Example 17, R-[2-(3,4-dichloro-phenyl)-4-methyl-pentanoyl]-urea]",138 to 140
9,"CC(O)CNC(=O)NC(=O)C(CC1CCCC1)c1ccc(Cl)c(Cl)c1 (stereo not shown) [Example 19, 1-[3-cyclopentyl-2-(3,4-dichloro-phenyl)-propionyl]-3-(2-hydroxy-propyl)-urea]",116.7 to 119.9
10,"COC(=O)CNC(=O)NC(=O)C(CC1CCCC1)c1ccc(Cl)c(Cl)c1 (stereo not shown) [Example 21, {3-[3-cyclopentyl-2-(3,4-dichloro-phenyl)-propionyl]-ureido}-acetic acid methyl ester]",134.5 to 136.6
11,"CNC(=O)NC(=O)C(CC1CCCC1)c1cccc(S(=O)(=O)C(F)(F)F)c1 (stereo not shown) [Example 31, 1-[3-cyclopentyl-2-(3-trifluoromethanesulfonyl-phenyl)-propionyl]-3-methyl-urea]",59 to 62
12,"CCS(=O)(=O)c1ccc(C(CC2CCCC2)C(=O)NC(=O)NC)cc1 (stereo not shown) [Example 33, 1-[3-cyclopentyl-2-(4-ethanesulfonyl-phenyl)-propionyl]-3-methyl-urea]",200 to 201
13,"CNC(=O)NC(=O)C(CC1CCCC1)c1ccc(S(C)(=O)=O)c(C#N)c1 (stereo not shown) [Example 36, 1-[2-(3-cyano-4-methanesulfonyl-phenyl)-3-cyclopentyl-propionyl]-3-methyl-urea]",237 to 239
14,"CNC(=O)NC(=O)C(CC1CCCC1)c1ccc(S(C)(=O)=O)c(S(C)(=O)=O)c1 (stereo not shown) [Example 37, 1-[2-(3,4-bis-methanesulfonyl-phenyl)-3-cyclopentyl-propionyl]-3-methyl-urea]",220 to 222
15,"CCCCS(=O)(=O)c1ccc(C(CC2CCCC2)C(=O)NC(=O)NC)cc1 (stereo not shown) [Example 39, 1-{2-[4-(butane-1-sulfonyl)-phenyl]-3-cyclopentyl-propionyl}-3-methyl-urea]",189 to 191

# Now from value to molecule:
row,melting point [°C],Compound
1,52 to 55,"CNC(=O)NC(=O)C(CC1CCCC1)c1cccc(Cl)c1 (stereo not shown) [Example 2, 1-[2-(3-chloro-phenyl)-3-cyclopentyl-propionyl]-3-methyl-urea]"
2,111 to 113,"CNC(=O)NC(=O)C(CC1CCCC1)c1ccc(F)c(F)c1 (stereo not shown) [Example 3, 1-[3-cyclopentyl-2-(3,4-difluoro-phenyl)-propionyl]-3-methyl-urea]"
3,145 to 147,"CNC(=O)NC(=O)C(CC1CCCC1)c1ccc(Cl)cc1 (stereo not shown) [Example 4, 1-[2-(4-chloro-phenyl)-3-cyclopentyl-propionyl]-3-methyl-urea]"
4,145 to 147,"CNC(=O)NC(=O)C(CC1CCCC1)c1ccccc1 (stereo not shown) [Example 6, 1-(3-cyclopentyl-2-phenyl-propionyl)-3-methyl-urea]"
5,184 to 186,"CNC(=O)NC(=O)C(CC1CCCC1)c1ccc(Br)cc1 (stereo not shown) [Example 7, 1-[2-(4-bromo-phenyl)-3-cyclopentyl-propionyl]-3-methyl urea]"
6,185 to 186,"CNC(=O)NC(=O)C(CC1CCCC1)c1ccc(SC)cc1 (stereo not shown) [Example 10, 1-[3-cyclopentyl-2-(4-methylsulfanyl-phenyl)-propionyl]-3-methyl urea]"
7,124.8 to 127.5,"CNC(=O)NC(=O)[C@H](CC1CCCC1)c1ccc(Cl)c(Cl)c1 [Example 13, 1-[3-cyclopentyl-2(R)-(3,4-dichloro-phenyl)-propionyl]-3-methyl-urea]"
8,187 to 189,"CNC(=O)NC(=O)C(CC1CCCC1)c1ccc(C(F)(F)F)c(F)c1 (stereo not shown) [Example 32, 1-[3-cyclopentyl-2-(3-fluoro-4-trifluoromethyl-phenyl)-propionyl]-3-methyl-urea]"
9,61 to 64,"CNC(=O)NC(=O)C(CC1CCCC1)c1ccc(Cl)c([N+](=O)[O-])c1 (stereo not shown) [Example 34, 1-[2-(4-chloro-3-nitro-phenyl)-3-cyclopentyl-propionyl]-3-methyl-urea]"
10,259 to 260,"CNC(=O)NC(=O)C(CC1CCCC1)c1ccc(S(C)(=O)=O)c(Br)c1 (stereo not shown) [Example 35, 1-[2-(3-bromo-4-methanesulfonyl-phenyl)-3-cyclopentyl-propionyl]-3-methyl-urea]"
11,268 to 270,"CNC(=O)NC(=O)C(CC1CCCC1)c1ccc(S(C)(=O)=O)c(C(F)(F)F)c1 (stereo not shown) [Example 40, 1-[3-cyclopentyl-2-(4-methanesulfonyl-3-trifluoromethyl-phenyl)-propionyl]-3-methyl-urea]"
12,199 to 200,"CNC(=O)NC(=O)C(CC1CCCC1)c1ccc(S(C)(=O)=O)c(F)c1 (stereo not shown) [Example 42, 1-[3-cyclopentyl-2-(3-fluoro4-methanesulfonyl-phenyl)-propionyl]-3-methyl-urea]"
13,61 to 65,"CNC(=O)NC(=O)C(CC1CCCC1)c1ccc(C#N)cc1 (stereo not shown) [Example 43, 1-[2-(4-cyano-phenyl)-3-cyclopentyl-propionyl]-3-methyl-urea]"
